According to patent EP2210584A1, “Stable polymeric composition comprising an epothilone and an amphiphilic block copolymer” (priority 2009, dated 2010):

Assay: Detection of degradation products of sagopilone by HPLC chromatogram
Type: physicochemical
Details: storage of 24 hours at 4°C
Protocol: The method for measuring the sagopilone content of the micellar dispersions as well as the detection of degradation products is determined by High Performance Liquid Chromatography. The analysis was done on a Agilent 1100 Series chromatography system consisting of a quaternary pump, an autoinjector, a column heater and a UV-detector from Agilent Technologies, Santa Clara, USA .

degradation of Sagopilone solubilized within the polymeric micelles: did not degrade
SMILES: C=CC[C@H]1C(=O)C(C)(C)[C@@H](O)CC(=O)O[C@H](c2ccc3sc(C)nc3c2)C[C@@H]2O[C@]2(C)CCC[C@H](C)[C@@H]1O [Sagopilone, (1S,3S,7S,10R,11S,12S,16R)-7,11-dihydroxy-10-(prop-2-en-1-yl)-3-(2-methylbenzothiazol-5-yl)-8,8,12,16-tetramethyl-4,17-dioxabicyclo[14.1.0]heptadecane-5,9-dione]
